Test results from patent US10590143B2, “Herbicidally active (alkynyl-phenyl)-substituted cyclic dione compounds and derivatives thereof” (Syngenta Limited, priority 2013, dated 2020).
Like-named read-outs stand apart in the source and are kept apart here.

Legend:
Assay in all cases: Biological Example 1 glasshouse assay for herbicidal activity
Assay type in all cases: in vivo
[1] = test system: Zea mays (ZEAMX, corn, maize, e.g. volunteer corn); settings: Zea mays, 312 h, 13 days after application, read-out: percentage phytotoxicity ZEAMX
Protocol: (§1) Seeds of a variety of test plant species were sown in standard soil** in pots. After cultivation for one day (pre-emergence) or after 8 days cultivation (post-emergence) under controlled conditions in a glasshouse (at 24/16° C., day/night; 14 hours light; 65% humidity), the plants were sprayed with an aqueous spray solution derived from the formulation of the technical active ingredient (the test herbicide) in acetone/water (50:50) solution containing 0.5% Tween 20 (polyoxyethylene sorbitan monolaurate, CAS Reg. No. 9005-64-5). The test plants were then grown on under controlled conditions in a glasshouse (at 24/16° C., day/night; 14 hours light; 65% humidity) and watered twice daily. 13 Days after application of the test herbicide, for pre- and post-emergence, the test was evaluated visually for percentage phytotoxicity to each plant (where 100%=total damage to plant; 0%=no damage to plant). Generally, each test herbicide is only tested on 1 plant per plant species for each application rate tested and for each application timing. **The “standard soil” in Biological Example 1 is usually a “sand” or “sandy loam” type of soil.
(§2) Dicotyledonous weeds: ABUTH=Abutilon theophrasti; AMARE=Amaranthus retroflexus. Grassy monocotyledonous weeds: SETFA=Setaria faberi; ALOMY=Alopecurus myosuroides; ECHCG=Echinochloa crus-galli; ZEAMX=Zea mays (corn, maize, e.g. volunteer corn).

[2] = test system: Amaranthus retroflexus (AMARE); settings: Amaranthus retroflexus, 312 h, 13 days after application, read-out: percentage phytotoxicity AMARE
Protocol: as §1, §2

[3] = test system: Abutilon theophrasti (ABUTH); settings: 312 h, 13 days after application, read-out: percentage phytotoxicity ABUTH
Protocol: as §1, §2

[4] = test system: Echinochloa crus-galli (ECHCG); settings: Echinochloa crus-galli, 312 h, 13 days after application, read-out: percentage phytotoxicity ECHCG
Protocol: as §1, §2

[5] = test system: Alopecurus myosuroides (ALOMY); settings: 312 h, 13 days after application, read-out: percentage phytotoxicity ALOMY
Protocol: as §1, §2

[6] = test system: Setaria faberi (SETFA); settings: 312 h, 13 days after application, read-out: percentage phytotoxicity SETFA
Protocol: as §1, §2

Compound | pest or weed control at 30 g/ha ([1]; post-emergence, post-emergence) [%] | pest or weed control at 250 g/ha ([1]; post-emergence, post-emergence) [%] | pest or weed control at 30 g/ha ([1]; pre-emergence, pre-emergence) [%] | pest or weed control at 250 g/ha ([1]; pre-emergence, pre-emergence) [%] | pest or weed control at 30 g/ha ([2]; post-emergence, post-emergence) [%] | pest or weed control at 250 g/ha ([2]; post-emergence, post-emergence) [%] | pest or weed control at 30 g/ha ([2]; pre-emergence, pre-emergence) [%] | pest or weed control at 250 g/ha ([2]; pre-emergence, pre-emergence) [%] | pest or weed control at 30 g/ha ([3]; post-emergence, post-emergence) [%] | pest or weed control at 250 g/ha ([3]; post-emergence, post-emergence) [%] | pest or weed control at 30 g/ha ([3]; pre-emergence, pre-emergence) [%] | pest or weed control at 250 g/ha ([3]; pre-emergence, pre-emergence) [%] | pest or weed control at 30 g/ha ([4]; post-emergence, post-emergence) [%] | pest or weed control at 250 g/ha ([4]; post-emergence, post-emergence) [%] | pest or weed control at 30 g/ha ([4]; pre-emergence, pre-emergence) [%] | pest or weed control at 250 g/ha ([4]; pre-emergence, pre-emergence) [%] | pest or weed control at 30 g/ha ([5]; post-emergence) [%] | pest or weed control at 250 g/ha ([5]; post-emergence) [%] | pest or weed control at 30 g/ha ([5]; pre-emergence) [%] | pest or weed control at 250 g/ha ([6]; post-emergence, post-emergence) [%] | also measured
CC#Cc1cc(F)c(C2C(=O)C3CCC(C3)C2=O)c(OCC)c1 (stereo not drawn) [Compound A4] | 100 | 100 | 80 | 100 | 20 | 50 | 40 | 50 | 10 | 30 | 20 | 30 | 90 | 100 | 90 | 100 | 80 | 90 | 70 | 100 | pest or weed control at 250 g/ha ([5]; pre-emergence): 90%; pest or weed control at 30 g/ha ([6]; post-emergence, post-emergence): 70%; pest or weed control at 30 g/ha ([6]; pre-emergence, pre-emergence): 50%; pest or weed control at 250 g/ha ([6]; pre-emergence, pre-emergence): 70%
CC#Cc1cc(F)c(C2C(=O)C3CCC(C)(C2=O)C3(C)C)c(OCC(F)(F)F)c1 (stereo not drawn) [Compound A9] | – | 20 | – | – | – | 0 | – | – | – | 0 | – | – | – | 10 | – | – | – | 10 | – | 20 | –
CC#Cc1cc(F)c(C2C(=O)C3CCC(C)(C2=O)C3(C)C)c(OCCOC)c1 (stereo not drawn) [Compound A10] | – | 40 | – | – | – | 0 | – | – | – | 0 | – | – | – | 0 | – | – | – | 0 | – | 0 | –
C#Cc1cc(F)c(C2C(=O)C3CCC(C3)C2=O)c(OC)c1 (stereo not drawn) [Compound B1] | 90 | 100 | 70 | 100 | 0 | 20 | 50 | 30 | 50 | 70 | 20 | 0 | 70 | 100 | 50 | 90 | 20 | 80 | 10 | 90 | pest or weed control at 8 g/ha ([1]; post-emergence, post-emergence): 80%; pest or weed control at 8 g/ha ([1]; pre-emergence, pre-emergence): 0%; pest or weed control at 8 g/ha ([2]; post-emergence, post-emergence): 0%; pest or weed control at 8 g/ha ([2]; pre-emergence, pre-emergence): 30%; pest or weed control at 8 g/ha ([3]; post-emergence, post-emergence): 50%; pest or weed control at 8 g/ha ([3]; pre-emergence, pre-emergence): 10%; pest or weed control at 8 g/ha ([4]; post-emergence, post-emergence): 20%; pest or weed control at 8 g/ha ([4]; pre-emergence, pre-emergence): 50%; pest or weed control at 8 g/ha ([5]; post-emergence): 0%; pest or weed control at 8 g/ha ([5]; pre-emergence): 0%; pest or weed control at 250 g/ha ([5]; pre-emergence): 90%; pest or weed control at 8 g/ha ([6]; post-emergence, post-emergence): 70%; pest or weed control at 30 g/ha ([6]; post-emergence, post-emergence): 70%; pest or weed control at 8 g/ha ([6]; pre-emergence, pre-emergence): 40%; pest or weed control at 30 g/ha ([6]; pre-emergence, pre-emergence): 60%; pest or weed control at 250 g/ha ([6]; pre-emergence, pre-emergence): 100%
CC#Cc1cc(F)c(C2=C(OC(=O)OCC)C3CCC(C3)C2=O)c(OC)c1 (stereo not drawn) [Compound P2] | 100 | 100 | 90 | 100 | 20 | 40 | 40 | 70 | 30 | 80 | 20 | 60 | 100 | 100 | 80 | 100 | 90 | 90 | 80 | 100 | pest or weed control at 8 g/ha ([1]; post-emergence, post-emergence): 90%; pest or weed control at 8 g/ha ([2]; post-emergence, post-emergence): 20%; pest or weed control at 8 g/ha ([3]; post-emergence, post-emergence): 10%; pest or weed control at 8 g/ha ([4]; post-emergence, post-emergence): 90%; pest or weed control at 8 g/ha ([5]; post-emergence): 70%; pest or weed control at 250 g/ha ([5]; pre-emergence): 100%; pest or weed control at 8 g/ha ([6]; post-emergence, post-emergence): 60%; pest or weed control at 30 g/ha ([6]; post-emergence, post-emergence): 90%; pest or weed control at 30 g/ha ([6]; pre-emergence, pre-emergence): 50%; pest or weed control at 250 g/ha ([6]; pre-emergence, pre-emergence): 90%
